Holding throughout (assay): FlAsH-BRET recruitment of c-Raf-1 to arrestin2
Holding throughout (assay type): cell-based

The subject of assay [1] is V2R-1 (V2R-T347A). As to conditions: HEK293 cells; for ΔBRET ratio, c-Raf-1 recruitment to arrestin2: V2R-1, Argipressin 10 μM, 37 °C, 10 min. The protocol: (§1) The interaction between arrestin2 and c-Raf-1 was measured by the FlAsH-BRET method. […] Data are expressed as relative values of ΔBRET ratio with the mean ± SEM of three independent experiments (n = 3). […] Source data are provided in the Source. Data file.
(§2) After 24 h of transfection, the cells were detached and distributed into 96-well plates at a density of ~25,000 cells per well. After another 24 h incubation at 37 °C, the cells were labeled FlAsH-EDT2 for 40 min at 37 °C and washed twice with Tyrode’s buffer (140 mM NaCl, 2.7 mM KCl, 1 mM CaCl2, 12 mM NaHCO3, 5.6 mM D-glucose, 0.5 mM MgCl2, 0.37 mM NaH2PO4, and 25 mM HEPES, pH = 7.4) and stimulated with or without Argipressin (final concentration of 10 μM) at 37 °C for 10 min Luciferase substrate coelenterazine-h was added at a final concentration of 5 μM before light emissions were recorded using a Mithras LB940 microplate reader (Berthold Technologies) equipped with BRET filter sets. The BRET signal was determined by calculating the ratio of the light intensity emitted by YFP ([…]) over the light intensity emitted by Rluc ([…]). Source data are provided in a Source Data file.

Assay [2] relates to V2R-3 (V2R-S357A). As to conditions: HEK293 cells, Argipressin 10 μM, 37 °C, 10 min. As for the experimental part: as §1, §2
Assay [3] concerns V2R-6-7 (V2R-S363A/S364A). The conditions noted are these: HEK293 cells; for ΔBRET ratio, c-Raf-1 recruitment to arrestin2: V2R-6-7, Argipressin 10 μM, 37 °C, 10 min. The protocol: as §1, §2

Consider vasopressin, for which, in assay [1] (T347A mutant of the V2 receptor, in words), the “c-Raf-1 recruited to arrestin, compared with wild-type V2 receptor” value was “significantly less”. The “ΔBRET ratio, c-Raf-1 recruitment to arrestin2” value worked out at 0.006 in assay [1] (Data1); 0.002 in assay [1] (Data2); 0.005 in assay [1] (Data3); 0.005 in assay [2] (Data1); 0.005 in assay [2] (Data2); 0.006 in assay [2] (Data3). Also, the “ΔBRET ratio, c-Raf-1 recruitment to arrestin2” value in assay [3] (Data1) was 0; in assay [3] (Data2) it was 0.001; in assay [3] (Data3), 0. In assay [3] (S363A-S364A mutations in V2R, in words), the “vasopressin-induced interaction between c-Raf-1 and arrestin2” value is “abolished”.

For the origin of these results see PMC8062632, “Structural studies of phosphorylation-dependent interactions between the V2R receptor and arrestin-2” (Nature Communications, 2021).
